According to US8815775B2 (priority 2010, dated 2014):
Read-outs that look alike come from different tables or passages of the source.

Experiment: log P by HPLC (EEC Directive 79/831 Annex V.A8)
Format: physicochemical
Details: HPLC with aqueous formic acid/acetonitrile eluents, pH 2.7
Protocol: The log P values were measured according to EEC Directive 79/831 Annex V.A8 by HPLC (high-performance liquid chromatography).
The LC-MS determination within the acidic range is effected at pH 2.7 with 0.1% aqueous formic acid and acetonitrile (contains 0.1% formic acid) as eluents; linear gradient from 10% acetonitrile to 95% acetonitrile.
The calibration is carried out using unbranched alkan-2-ones (having 3 to 16 carbon atoms) with known log P values (determination of the log P values by the retention times using linear interpolation between two successive alkanones). The lambda-maX values were determined in the maxima of the chromatographic signals using the UV spectra from 200 nm to 400 nm.

Compound	chromatographic logP (read-out: log P (pH2.7))	chromatographic logP (HCOOH, read-out: log P (HCOOH))
CN(C(=O)c1csc(C2(F)CCN(C(=O)Cn3nc(C(F)F)cc3C(F)F)CC2)n1)C1CCCc2ccccc21 (racemic) [I-a-4, (±)-2-(1-{[3,5-bis(Difluoromethyl)-1H-pyrazol-1-yl]acetyl}-4-fluoropiperidin-4-yl)-N-methyl-N-(1,2,3,4-tetrahydronaphthalen-1-yl)-1,3-thiazole-4-carboxamide]	3.56	–
CC(C)(C)OC(=O)N1CCC(O)(c2nc(Br)cs2)CC1 [IV-1, tert-Butyl 4-(4-bromo-1,3-thiazol-2-yl)-4-hydroxypiperidine-1-carboxylate]	–	2.74
CCOC(=O)c1csc(C2(F)CCN(C(=O)Cn3nc(C(F)F)cc3C(F)F)CC2)n1 [IXa-1, Ethyl 2-(1-{[3,5-bis(difluoromethyl)-1H-pyrazol-1-yl]acetyl}-4-fluoropiperidin-4-yl)-1,3-thiazole-4-carboxylate]	2.82	–
CCOC(=O)c1csc(C2(F)CCNCC2)n1 [VII-1, 4-[4-(Ethoxycarbonyl)-1,3-thiazol-2-yl]-4-fluoropiperidinium chloride]	0.39	–
CCOC(=O)c1csc(C2(F)CCN(C(=O)OC(C)(C)C)CC2)n1 [VIa-1, tert-Butyl 4-[4-(ethoxycarbonyl)-1,3-thiazol-2-yl]-4-fluoropiperidine-1-carboxylate]	3.47	–
CC(C)(C)OC(=O)N1CCC(F)(c2nc(Br)cs2)CC1 [Va-1, tert-Butyl 4-(4-bromo-1,3-thiazol-2-yl)-4-fluoropiperidine-1-carboxylate]	–	3.94
O=C(O)c1csc(C2(F)CCN(C(=O)Cn3nc(C(F)F)cc3C(F)F)CC2)n1 [Xa-1, 2-(1-{[3,5-bis(Difluoromethyl)-1H-pyrazol-1-yl]acetyl}-4-fluoropiperidin-4-yl)-1,3-thiazole-4-carboxylic acid]	1.96	–
